We go through 18 compounds from patent EP4800015A1, “AZABICYCLO DERIVATIVE AND PREPARATION METHOD THEREFOR, AND USE” (Zhejiang Hisun Pharmaceutical Co., Ltd., priority 2023, dated 2025).

One may read the IC50 as the concentration that inhibits the measured activity by half.

The target in the first experiment is T1, recombinant human WRN (Homo sapiens, UniProt Q14191).
T1 construct: purchased BPS 101264
T1 sequence (Q14191 whole entry): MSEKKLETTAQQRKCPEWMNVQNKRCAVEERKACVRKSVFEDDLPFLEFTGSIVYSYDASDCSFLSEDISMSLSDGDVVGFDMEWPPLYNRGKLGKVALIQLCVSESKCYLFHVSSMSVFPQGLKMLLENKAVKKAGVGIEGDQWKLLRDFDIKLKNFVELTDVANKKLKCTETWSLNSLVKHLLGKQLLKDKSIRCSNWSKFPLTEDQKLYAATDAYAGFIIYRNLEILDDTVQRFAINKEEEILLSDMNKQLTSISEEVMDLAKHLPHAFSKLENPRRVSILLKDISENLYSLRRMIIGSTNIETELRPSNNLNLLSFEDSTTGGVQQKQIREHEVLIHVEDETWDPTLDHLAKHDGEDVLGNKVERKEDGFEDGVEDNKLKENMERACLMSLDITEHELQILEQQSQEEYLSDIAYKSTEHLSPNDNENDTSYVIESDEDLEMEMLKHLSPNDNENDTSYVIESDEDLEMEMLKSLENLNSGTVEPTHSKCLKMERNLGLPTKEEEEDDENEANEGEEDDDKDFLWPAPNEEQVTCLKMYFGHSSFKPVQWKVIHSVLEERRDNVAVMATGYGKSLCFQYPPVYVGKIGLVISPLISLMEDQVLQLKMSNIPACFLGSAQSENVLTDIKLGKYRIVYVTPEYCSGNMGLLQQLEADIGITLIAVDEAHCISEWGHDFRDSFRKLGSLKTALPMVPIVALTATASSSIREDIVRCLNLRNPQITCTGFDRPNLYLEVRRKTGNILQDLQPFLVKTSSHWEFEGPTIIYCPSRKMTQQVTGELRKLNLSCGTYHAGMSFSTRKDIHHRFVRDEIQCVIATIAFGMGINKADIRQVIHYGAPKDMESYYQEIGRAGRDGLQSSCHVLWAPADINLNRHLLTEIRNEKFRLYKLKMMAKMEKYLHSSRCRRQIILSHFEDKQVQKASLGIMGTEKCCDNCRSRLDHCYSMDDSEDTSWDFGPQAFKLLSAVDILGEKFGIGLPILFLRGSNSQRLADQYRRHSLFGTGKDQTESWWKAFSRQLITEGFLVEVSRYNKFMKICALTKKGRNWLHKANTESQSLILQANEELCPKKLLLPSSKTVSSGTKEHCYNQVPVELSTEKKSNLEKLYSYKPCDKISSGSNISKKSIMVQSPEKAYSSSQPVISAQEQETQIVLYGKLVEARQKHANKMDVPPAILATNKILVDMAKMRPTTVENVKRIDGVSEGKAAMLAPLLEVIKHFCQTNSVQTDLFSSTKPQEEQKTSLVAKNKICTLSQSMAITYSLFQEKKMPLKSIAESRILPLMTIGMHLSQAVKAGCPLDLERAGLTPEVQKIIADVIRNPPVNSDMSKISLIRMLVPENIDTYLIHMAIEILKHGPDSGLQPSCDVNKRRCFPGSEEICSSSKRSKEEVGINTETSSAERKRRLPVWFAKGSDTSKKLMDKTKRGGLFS
The experiment in a line: Inhibition of WRN enzyme activity (ATPase), ADP-Glo Kinase Assay. The format is biochemical. The note with it: WRN protein 5 nM, Flap 0.1 nM, ATP 30 µM. From the text: The following method was used to determine the degree of inhibition of recombinant human WRN ATPase activity by the compounds of the present disclosure in vitro. In this method, ADP-Glo™ Kinase Assay kit (catalog No. V9102) from Promega was used. Detailed experimental procedures can be found in the kit manual.
The experimental procedure was briefly described as follows: test compounds were first dissolved in DMSO to prepare stock solutions, followed by serial dilution using reaction buffer (30 mM Tris, pH 7.5, 2 mM MgCl2, 50 mM NaCl, 0.02% BSA, 0.1% Pluronic F127), with final concentrations of test compounds in the reaction system ranging from 1000 nM to 0.004 nM; WRN protein (purchased from BPS, catalog No. 101264), substrate 5-flap oligonucleotide (Flap26) (synthesized by Shanghai Generay Biotech Co., Ltd., sequence 5'-[…]-3'), and ATP working solution (from ADP-Glo™ Kinase Assay kit component V915A) were prepared using reaction buffer. Reactions were performed in 384-well microplates. At first the compounds and recombinant human WRN protein (final concentration 5 nM) were added to the wells and the plate was incubated at room temperature for 15 minutes, then Flap solution (final concentration 0.1 nM) and ATP solution (final concentration 30 µM) were added to the reaction solution and the plate was incubated at room temperature for 10 minutes. Subsequently, 5 µL of ADP-Glo Reagent was added to the reaction system and incubated at room temperature for 40 minutes. Then 10 µL of Kinase Detection Reagent was added to the reaction system and incubated at room temperature for 30 minutes. After the incubation was completed, chemiluminescence intensity values of each well were measured using a microplate reader in luminescence mode. The percentage inhibition of the compounds at each concentration was calculated by comparison with the luminescence intensity values of the control group (0.1% DMSO), and IC50 values of compounds were obtained by nonlinear regression analysis of compound concentration logarithm-inhibition rate using GraphPad Prism 9 software, as shown in Table 1.
The IC50 value results of the compounds of the present disclosure are expressed as AA and A, respectively as follows: "AA" indicates IC50 ≤ 1 nM; "A" indicates 1 nM < IC50 ≤ 100 nM. Table 1 IC50 of the compounds of the present disclosure for inhibiting WRN enzyme activity (ATPase)
Background: ADP-Glo first removes unused ATP, then detects ADP through luciferase.
With `CCc1c(N2CCN(C(=O)c3ncnc(C)c3O)CC2)c(=O)n2nc(-c3coc4ccccc34)nc2n1CC(=O)Nc1ccc(C(F)(F)F)cc1Cl` [Example 35, 2-(2-(benzofuran-3-yl)-5-ethyl-6-(4-(5-hydroxy-6-methylpyrimidine-4-carbonyl)piperazin-1-yl)-7-oxo-[1,2,4]triazolo[1,5-a]pyrimidin-4(7H)-yl)-N-(2-chloro-4-(trifluoromethyl)phenyl) acetamide], the IC50 fell in the range of 1 to 100 nM.

The same experiment, now with this note: WRN protein 5 nM, Flap 0.1 nM, ATP 30 µM; read-out: IC50.
In the case of `CCc1c(N2CCN(C(=O)c3ccncc3O)CC2)c(=O)n2nc(C3=CCCCCC3)nc2n1CC(=O)Nc1ccc(C(C)(C)C)cc1` [Example 24, N-(4-(tert-butyl)phenyl)-2-(2-(cyclohept-1-en-1-yl)-5-ethyl-6-(4-(3-hydroxyisonicotinoyl)piperazin-1-yl)-7-oxo-[1,2,4]triazolo[1,5-a]pyrimidin-4(7H)-yl)acetamide], the concentration for half-maximal inhibition (IC50) is 1 to 100 nM.
Still for that read-out and setting: for `CCc1c(N2CCN(C(=O)c3ccncc3O)CC2)c(=O)n2nc(C3=CCCCCC3)nc2n1CC(=O)Nc1ccc(S(F)(F)(F)(F)F)cc1` [Example 25, 2-(2-(cyclohept-1-en-1-yl)-5-ethyl-6-(4-(3-hydroxyisonicotinoyl)piperazin-1-yl)-7-oxo-[1,2,4]triazolo[1,5-a]pyrimidin-4(7H)-yl)-N-(4-(pentafluoro-λ^6-sulfaneyl)phenyl)acetamide] the value was 1 to 100 nM; for `CCc1c(N2CCN(C(=O)c3ncnc(C)c3O)CC2)c(=O)n2nc(C3=CCCCCC3)nc2n1CC(=O)Nc1ccc(C(C)(C)C)cc1` [Example 26, N-(4-(tert-Butyl)phenyl)-2-(2-(cyclohept-1-en-1-yl)-5-ethyl-6-(4-(5-hydroxy-6-methylpyrimidine-4-carbonyl)piperazin-1-yl)-7-oxo-[1,2,4]triazolo[1,5-a]pyrimidin-4(7H)-yl)acetamide], 1 to 100 nM; for `CCc1nc2n(CC(=O)Nc3ccc(C(F)(F)F)cc3Cl)c(CC)c(N3CCN(C(=O)c4ncnc(C)c4O)CC3)c(=O)n2n1` [Example 28, N-(2-chloro-4-(trifluoromethyl)phenyl)-2-(2,5-diethyl-6-(4-(5-hydroxy-6-methylpyrimidine-4-carbonyl)piperazin-1-yl)-7-oxo-[1,2,4]triazolo[1,5-a]pyrimidin-4(7H)-yl)acetamide], 1 to 100 nM.
As for `Cc1ncnc(C(=O)N2CCN(c3c(C)n(CC(=O)Nc4ccc(C(F)(F)F)cc4Cl)c4nc(C5=CC6CC(=O)CC6C5)nn4c3=O)CC2)c1O` (stereo not drawn) [Example 32, N-(2-chloro-4-(trifluoromethyl)phenyl)-2-(6-(4-(5-hydroxy-6-methylpyrimidine-4-carbonyl)piperazin-1-yl)-5-methyl-7-oxo-2-(5-oxo-1,3a,4,5,6,6a-hexahydropentalen-2-yl)-[1,2,4]triazolo[1,5-a]pyrimidin-4(7H)-yl)acetamide], the IC50 is 1 to 100 nM.
Still for that read-out and setting: for `CCc1c(N2CCN(C(=O)c3ncnc(C)c3O)CC2)c(=O)n2nc(/C=C(\C)C3CC3)nc2n1CC(=O)Nc1ccc(C(F)(F)F)cc1Cl` [Example 36, (E)-N-(2-chloro-4-(trifluoromethyl)phenyl)-2-(2-(2-cyclopropylprop-1-en-1-yl)-5-ethyl-6-(4-(5-hydroxy-6-methylpyrimidine-4-carbonyl)piperazin-1-yl)-7-oxo-[1,2,4]triazolo[1,5-a]pyrimidin-4(7H)-yl)acetamide] the value was 1 to 100 nM; for `CCc1c(N2CCN(C(=O)c3ncnc(C)c3O)CC2)c(=O)n2nc(/C=C/c3ccccn3)nc2n1CC(=O)Nc1ccc(C(F)(F)F)cc1Cl` [Example 37, (E)-N-(2-chloro-4-(trifluoromethyl)phenyl)-2-(5-ethyl-6-(4-(5-hydroxy-6-methylpyrimidine-4-carbonyl)piperazin-1-yl)-7-oxo-2-(2-(pyridin-2-yl)vinyl)-[1,2,4]triazolo[1,5-a]pyrimidin-4(7H)-yl)a cetamide], 1 to 100 nM; for `CCc1c(N2CCN(C(=O)c3ncccc3O)CC2)c(=O)n2nc(C3=CC4CC4C3)nc2n1CC(=O)Nc1ccc(C(F)(F)F)cc1Cl` (stereo not drawn) [Example 38, 2-(2-(bicyclo[3.1.0]hex-2-en-3-yl)-5-ethyl-6-(4-(3-hydroxypicolinoyl)piperazin-1-yl)-7-oxo-[1,2, 4]triazolo[1,5-a]pyrimidin-4(7H)-yl)-N-(2-chloro-4-(trifluoromethyl)phenyl)acetamide], < 1 nM.
Same read-out and setting: for `CCc1c(N2CCN(C(=O)c3ncccc3O)CC2)c(=O)n2nc(C3=CC4CCC3C4)nc2n1CC(=O)Nc1ccc(C(F)(F)F)cc1Cl` (stereo not drawn) [Example 41, 2-(2-(bicyclo[2.2.1]hept-2-en-2-yl)-5-ethyl-6-(4-(3-hydroxypicolinoyl)piperazin-1-yl)-7-oxo-[1,2,4]triazolo[1,5-a]pyrimidin-4(7H)-yl)-N-(2-chloro-4-(trifluoromethyl)phenyl)acetamide] the value was 1 to 100 nM; for `CCc1c(N2CCN(C(=O)c3ccncc3O)CC2)c(=O)n2nc(C3=CCCCCC3)nc2n1CC(=O)Nc1ccc(C(F)(F)F)cc1C` [Example 42, 2-(2-(cyclohept-1-en-1-yl)-5-ethyl-6-(4-(3-hydroxyisonicotinoyl)piperazin-1-yl)-7-oxo-[1,2,4]triazolo[1,5-a]pyrimidin-4(7H)-yl)-N-(2-methyl-4-(trifluoromethyl)phenyl)acetamide], 1 to 100 nM; for `CCc1c(N2CCN(C(=O)c3ccncc3O)CC2)c(=O)n2nc(C3=CCCCCC3)nc2n1CC(=O)Nc1ccc(C(F)(F)F)cc1OC` [Example 43, 2-(2-(cyclohept-1-en-1-yl)-5-ethyl-6-(4-(3-hydroxyisonicotinoyl)piperazin-1-yl)-7-oxo-[1,2,4]triazolo[1,5-a]pyrimidin-4(7H)-yl)-N-(2-methoxy-4-(trifluoromethyl)phenyl)acetamide], 1 to 100 nM.
Same read-out and setting: in the case of `CCc1c(N2CCN(C(=O)c3ccncc3O)CC2)c(=O)n2nc(C3=CCCCCC3)nc2n1CC(=O)Nc1ccc(C(F)(F)F)cc1F` [Example 44, 2-(2-(cyclohept-1-en-1-yl)-5-ethyl-6-(4-(3-hydroxyisonicotinoyl)piperazin-1-yl)-7-oxo-[1,2,4]triazolo[1,5-a]pyrimidin-4(7H)-yl)-N-(2-fluoro-4-(trifluoromethyl)phenyl)acetamide] it was 1 to 100 nM; in that of `CCc1c(N2CCN(C(=O)c3ncccc3O)CC2)c(=O)n2nc(C3=CCCCCC3)nc2n1CC(=O)Nc1ccc(C(F)(F)F)cc1Cl` [Example 45, N-(2-chloro-4-(trifluoromethyl)phenyl)-2-(2-(cyclohept-1-en-1-yl)-5-ethyl-6-(4-(3-hydroxypicolinoyl)piperazin-1-yl)-7-oxo-[1,2,4]triazolo[1,5-a]pyrimidin-4(7H)-yl)acetamide], 1 to 100 nM; in that of `CCc1c(N2CCN(C(=O)c3ncccc3O)CC2)c(=O)n2nc(C3=CCCCCC3)nc2n1CC(=O)Nc1ccc(S(F)(F)(F)(F)F)cc1` [Example 46, 2-(2-(cyclohept-1-en-1-yl)-5-ethyl-6-(4-(3-hydroxypicolinoyl)piperazin-1-yl)-7-oxo-[1,2,4]triazolo[1,5-a]pyrimidin-4(7H)-yl)-N-(4-(pentafluoro-λ^6-sulfaneyl)phenyl)acetamide], 1 to 100 nM.
Take `CCc1c(N2CCN(C(=O)c3ncnc(C)c3O)CC2)c(=O)n2nc(C3=CCCCCC3)nc2n1CC(=O)Nc1ccc(C(F)(F)F)cc1OC` [Example 48, 2-(2-(cyclohept-1-en-1-yl)-5-ethyl-6-(4-(5-hydroxy-6-methylpyrimidine-4-carbonyl)piperazin-1-yl)-7-oxo-[1,2,4]triazolo[1,5-a]pyrimidin-4(7H)-yl)-N-(2-methoxy-4-(trifluoromethyl)phenyl)ace tamide]: the IC50 was in the range of 1 to 100 nM.
Consider `CCc1c(N2CCN(C(=O)c3ncnc(C)c3O)CC2)c(=O)n2nc(C3=CC4(CCC4)C3)nc2n1CC(=O)Nc1ccc(C(F)(F)F)cc1Cl` [Example 50, N-(2-chloro-4-(trifluoromethyl)phenyl)-2-(5-ethyl-6-(4-(5-hydroxy-6-methylpyrimidine-4-carbonyl)piperazin-1-yl)-7-oxo-2-(spiro[3.3]hept-1-en-2-yl)-[1,2,4]triazolo[1,5-a]pyrimidin-4(7H)-yl)ac etamide], for which the concentration for half-maximal inhibition (IC50) was in the range of 1 to 100 nM.
The same measure, in the same setting: for `CCc1c(N2CCN(C(=O)c3ncccc3O)CC2)c(=O)n2nc(C3=CC4(CCC4)C3)nc2n1CC(=O)Nc1ccc(C(F)(F)F)cc1Cl` [Example 51, N-(2-chloro-4-(trifluoromethyl)phenyl)-2-(5-ethyl-6-(4-(3-hydroxypicolinoyl)piperazin-1-yl)-7-oxo-2-(spiro[3.3]hept-1-en-2-yl)-[1,2,4]triazolo[1,5-a]pyrimidin-4(7H)-yl)acetamide] the value was 1 to 100 nM.
